Earlier results as cited in US12414914B2, “Docetaxel composition for injection and preparation method therefor” (BIKA BIOTECHNOLOGY (GUANGZHOU) CO., LTD, priority 2018, dated 2025).

Legend:
microtubules [1] = tested on: microtubules
microtubules [2] = conditions: compared to paclitaxel
cancer cells = conditions: compared to paclitaxel

## CC(=O)O[C@@]12CO[C@@H]1C[C@H](O)[C@@]1(C)C(=O)[C@H](O)C3=C(C)[C@@H](OC(=O)[C@H](O)[C@@H](NC(=O)OC(C)(C)C)c4ccccc4)C[C@@](O)([C@@H](OC(=O)c4ccccc4)[C@H]21)C3(C)C (relative stereo) [docetaxel, [2aR-(2aα, 4β, 4aβ, 6β, 9α, (aR*, βS*), 11α, 12α, 12aα, 12bα)]-β-[[(1,1-dimethylethoxy)carbonyl]amino]-α-hydroxybenzene propanoic acid [12b-acetyloxy-12-benzoyloxy-2a, 3,4,4a, 5,6,9, 10, 11, 12, 12a, 12b-dodecahydro-4,6, 11-trihydroxy-4a, 8, 13, 13-tetramethyl-5-oxo-7, 11-methano-1H-cyclodeca-[3, 4]benz [1,2-b]oxet-9-yl] ester]
Alkaline conditions
  stability in alkaline conditions: unstable in alkaline conditions
ethanol
  solubility in ethanol: soluble in ethanol
water
  solubility in water: practically insoluble in water
Microtubules [1]
  Affinity to microtubules compared to paclitaxel: 2 times higher
Microtubules [2]
  activity as microtubule stabilizer and assembly promoter relative to paclitaxel: twice as active as paclitaxel
  activity as microtubule-depolymerizing inhibitor relative to paclitaxel: twice as active as paclitaxel
Cancer cells
  anti-tumor activity in vitro relative to paclitaxel: 1.3˜12 times more active
